Measured values published in the supplement of paper PMC11061612.

What was measured:
Experiment in all cases: combination Emax (second highest fraction inhibited in the dose matrix, 72 h); higher = more inhibition; extreme values may be limits of the assay
[1] = test system: MOLM-13 (Acute Myeloid Leukemia)
In short: (§1)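 Cell lines grown in DMEM/F12 or RPMI with 10% FBS were plated in 1536-well plates and held 24 hours at 37°C, 5% CO2 before 72 hours of exposure to two-drug dose matrices, with DMSO typically at 0.2%. CellTiter-Glo 2.0 luminescence gave viability, which was converted to inhibition. Vehicle wells were set to 0 and blank wells to 1. Combination Emax is the second-highest inhibition in the matrix, and Bliss excess is the observed combination effect minus the expected EA + EB − EA·EB, where EA and EB are the single-agent effects.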

[2] = test system: MN-60 (B-Lymphoblastic Leukemia)
In short: as §1

[3] = test system: NCI-H661 (Non-Small Cell Lung Carcinoma)
In short: as §1

[4] = test system: RPMI-8226 (Plasma Cell Myeloma)
In short: as §1

[5] = test system: SNU-398 (Hepatocellular Carcinoma)
In short: as §1

[6] = test system: H9 (T-Cell Non-Hodgkin's Lymphoma)
In short: as §1

[7] = test system: ESO51 (Esophageal Adenocarcinoma)
In short: as §1

[8] = test system: KY821 (Acute Myeloid Leukemia)
In short: as §1

[9] = test system: DMS-114 (Small Cell Lung Carcinoma)
In short: as §1

[10] = test system: SUP-B15 (B-Lymphoblastic Leukemia)
In short: as §1

[11] = test system: VMRC-RCZ (Kidney Carcinoma)
In short: as §1

[12] = test system: SK-GT-2 (Gastric Carcinoma)
In short: as §1

[13] = test system: IM-95 (Gastric Carcinoma)
In short: as §1

NCI-H2731 (Mesothelioma) = test system: NCI-H2731 (Mesothelioma)
In short: as §1

[14] = test system: PC-3 (Prostate Carcinoma)
In short: as §1

[15] = test system: HCC1187 (Breast Carcinoma)
In short: as §1

[16] = test system: NCI-H526 (Small Cell Lung Carcinoma)
In short: as §1

[17] = test system: DAN-G (Pancreatic Carcinoma)
In short: as §1

[18] = test system: KP-3 (Pancreatic Carcinoma)
In short: as §1

[19] = test system: COR-L279 (Small Cell Lung Carcinoma)
In short: as §1

Compound | combination Emax [1] | combination Emax [2] | combination Emax [3] | combination Emax [4] | combination Emax [5] | combination Emax [6] | combination Emax [7] | combination Emax [8] | combination Emax [9] | combination Emax [10] | combination Emax [11] | combination Emax [12] | combination Emax [13] | combination Emax (NCI-H2731 (Mesothelioma)) | combination Emax [14] | combination Emax [15] | combination Emax [16] | combination Emax [17] | combination Emax [18] | combination Emax [19]
C[C@@H](c1ccc2nccn2c1)n1nnc2ncc(-c3cnn(C)c3)nc21 [Savolitinib] + CC1(C)CCC(CN2CCN(c3ccc(C(=O)NS(=O)(=O)c4ccc(NCC5CCOCC5)c([N+](=O)[O-])c4)c(Oc4cnc5[nH]ccc5c4)c3)CC2)=C(c2ccc(Cl)cc2)C1 [Venetoclax] (first compound max 1 µM, 7x7, partner max 1 µM) | 0.923 | 0.125 | 0.115 | 0.106 | 0.127 | 0.155 | 0.877 | 0.895 | 0.299 | 1 | 0.152 | 0.139 | 0.333 | 0.144 | 0.121 | 0.0587 | 0.621 | 0.0972 | 0.131 | 0.199
C[C@@H](c1ccc2nccn2c1)n1nnc2ncc(-c3cnn(C)c3)nc21 [Savolitinib] + Cc1c2c(nn1C)CSCc1cc(n(C)n1)CSc1cc(c3ccccc3c1)OCCCc1c(C(=O)O)n(C)c3c-2c(Cl)ccc13 [AZD5991] (first compound max 1 µM, 7x7, partner max 1 µM) | 1 | 0.114 | 0.491 | 0.983 | 0.936 | 0.342 | 0.977 | 1 | 0.551 | 0.678 | 0.134 | 0.163 | 0.732 | 0.119 | 0.121 | 1 | 0.43 | 0.195 | 0.235 | 0.244
Cn1cnc2c(F)c(Nc3ccc(Br)cc3Cl)c(C(=O)NOCCO)cc21 [Selumetinib] + C=CCn1c(=O)c2cnc(Nc3ccc(N4CCN(C)CC4)cc3)nc2n1-c1cccc(C(C)(C)O)n1 [AZD1775] (first compound max 10 µM, partner max 1 µM) | 1 | 0.282 | 0.553 | 0.438 | 0.784 | 1 | 0.681 | 1 | 0.192 | 0.915 | 0.258 | 0.652 | 0.453 | 0.194 | 0.165 | 0.682 | 0.69 | 0.811 | 0.274 | 0.432
Cn1cnc2c(F)c(Nc3ccc(Br)cc3Cl)c(C(=O)NOCCO)cc21 [Selumetinib] + CC(C)n1c(=O)n(C)c2cnc3cc(F)c(-c4ccc(OCCCN5CCCCC5)nc4)cc3c21 [AZD1390] (first compound max 10 µM, 7x7, partner max 0.3 µM) | 0.767 | 0.052 | 0.0857 | 0.26 | 0.278 | 0.978 | 0.434 | 0.66 | 0.199 | 0.328 | 0.101 | 0.113 | 0.222 | 0.0731 | 0.0591 | 0.179 | 0.0826 | 0.15 | 0.15 | 0.194
Cn1cnc2c(F)c(Nc3ccc(Br)cc3Cl)c(C(=O)NOCCO)cc21 [Selumetinib] + CCN(CCO)CCCOc1ccc2c(Nc3cc(CC(=O)Nc4cccc(F)c4)[nH]n3)ncnc2c1 [AZD2811] (first compound max 10 µM, 7x7, partner max 1 µM) | 0.999 | 0.342 | 0.0527 | 0.446 | 0.662 | 1 | 0.454 | 0.843 | 0.281 | 1 | 0.152 | 0.173 | 0.519 | 0.201 | 0.141 | 0.94 | 0.32 | 0.519 | 0.202 | 0.765
Cn1cnc2c(F)c(Nc3ccc(Br)cc3Cl)c(C(=O)NOCCO)cc21 [Selumetinib] + C[C@@H]1COCCN1C2=NC(=NC(=C2)C3(CC3)[S@](=N)(=O)C)C4=C5C=CNC5=NC=C4 [AZD6738] (first compound max 10 µM, 7x7, partner max 10 µM) | 1 | 0.56 | 0.396 | 0.871 | 0.742 | 1 | 0.857 | 0.944 | 0.34 | 0.986 | 0.217 | 0.186 | 0.304 | 0.173 | 0.39 | 0.636 | 0.427 | 0.675 | 0.156 | 0.626
CC(=O)Nc1cccc(-n2c(=O)n(C3CC3)c(=O)c3c(Nc4ccc(I)cc4F)n(C)c(=O)c(C)c32)c1 [Trametinib] + Cc1nc(-c2cn3c(n2)-c2ccc(-c4cnn(C(C)(C)C(N)=O)c4)cc2OCC3)n(C(C)C)n1 [Taselisib] (first compound max 1 µM, 7x7, partner max 10 µM) | 1 | 0.42 | 0.457 | 0.755 | 0.56 | 0.984 | 0.987 | 0.97 | 0.668 | 1 | 0.308 | 0.723 | 0.584 | 0.498 | 0.503 | 0.456 | 0.304 | 0.999 | 0.446 | 0.661
CC1(C)CCC(CN2CCN(c3ccc(C(=O)NS(=O)(=O)c4ccc(NCC5CCOCC5)c([N+](=O)[O-])c4)c(Oc4cnc5[nH]ccc5c4)c3)CC2)=C(c2ccc(Cl)cc2)C1 [Venetoclax] + C1CN(CCC1(C(=O)N[C@@H](CCO)C2=CC=C(C=C2)Cl)N)C3=NC=NC4=C3C=CN4 [Capivasertib] (first compound max 1 µM, 7x7, partner max 3 µM) | 1 | 0.293 | 0.192 | 0.172 | 0.217 | 0.541 | 0.11 | 1 | 0.24 | 1 | 0.206 | 0.162 | 0.398 | 0.27 | 0.365 | 0.183 | 0.769 | 0.195 | 0.137 | 0.418
CC1(C)CCC(CN2CCN(c3ccc(C(=O)NS(=O)(=O)c4ccc(NCC5CCOCC5)c([N+](=O)[O-])c4)c(Oc4cnc5[nH]ccc5c4)c3)CC2)=C(c2ccc(Cl)cc2)C1 [Venetoclax] + C=CCn1c(=O)c2cnc(Nc3ccc(N4CCN(C)CC4)cc3)nc2n1-c1cccc(C(C)(C)O)n1 [AZD1775] (first compound max 1 µM, partner max 1 µM) | 1 | 0.305 | 0.63 | 0.538 | 0.711 | 0.966 | 0.647 | 1 | 0.437 | 1 | 0.467 | 0.597 | 0.299 | 0.286 | 0.29 | 0.442 | 0.835 | 0.747 | 0.307 | 0.746
CC1(C)CCC(CN2CCN(c3ccc(C(=O)NS(=O)(=O)c4ccc(NCC5CCOCC5)c([N+](=O)[O-])c4)c(Oc4cnc5[nH]ccc5c4)c3)CC2)=C(c2ccc(Cl)cc2)C1 [Venetoclax] + CCN(CCO)CCCOc1ccc2c(Nc3cc(CC(=O)Nc4cccc(F)c4)[nH]n3)ncnc2c1 [AZD2811] (first compound max 1 µM, 7x7, partner max 1 µM) | 1 | 0.297 | 0.143 | 0.481 | 0.515 | 0.888 | 0.117 | 0.978 | 0.207 | 1 | 0.178 | 0.155 | 0.412 | 0.211 | 0.245 | 0.886 | 0.928 | 0.21 | 0.148 | 0.833
CC1(C)CCC(CN2CCN(c3ccc(C(=O)NS(=O)(=O)c4ccc(NCC5CCOCC5)c([N+](=O)[O-])c4)c(Oc4cnc5[nH]ccc5c4)c3)CC2)=C(c2ccc(Cl)cc2)C1 [Venetoclax] + CN(C)CCCOc1ccc(-c2ccc3ncc4c(c3c2)n(C2CCOCC2)c(=O)n4C)cn1 [AZD0156] (first compound max 1 µM, 7x7, partner max 1 µM) | 0.898 | 0.285 | 0.122 | 0.43 | 0.234 | 0.156 | 0.147 | 0.926 | 0.245 | 1 | 0.14 | 0.155 | 0.19 | 0.145 | 0.21 | 0.173 | 0.856 | 0.264 | 0.146 | 0.522
CC1(C)CCC(CN2CCN(c3ccc(C(=O)NS(=O)(=O)c4ccc(NCC5CCOCC5)c([N+](=O)[O-])c4)c(Oc4cnc5[nH]ccc5c4)c3)CC2)=C(c2ccc(Cl)cc2)C1 [Venetoclax] + COc1cc(Nc2ncc3c(n2)-c2ccc(Cl)cc2C(c2c(F)cccc2OC)=NC3)ccc1C(=O)O [Alisertib] (first compound max 1 µM, 7x7, partner max 10 µM) | 1 | 0.291 | 0.26 | 0.685 | 0.498 | 0.802 | 0.213 | 1 | 0.555 | 1 | 0.21 | 0.241 | 0.412 | 0.364 | 0.321 | 0.744 | 0.852 | 0.425 | 0.103 | 0.82
